Test results as given in article PMC11397358, “Cytotoxic Activity of Novel GnRH Analogs Conjugated with Mitoxantrone in Ovarian Cancer Cells” (Molecules, 2024).

Key:
SKOV-3 cells [1] = assay: Cell proliferation (MTT) assay; type: cell-based, human; details: over time (days 2–4) and at various concentrations
Description: The antiproliferative effects of GnRH-mitoxantrone conjugates, Con-3, and Con-7, were evaluated using the SKOV-3 cells. The Con-3 and Con-7 conjugates decreased the proliferation rate of SKOV-3 cells in a dose-dependent manner on days 2, 3, and 4 (Figure 3A–C).
Figure 3 Antiproliferative activity of the GnRH analogs. Decrease in the proliferation rate of the SKOV3 cells after their treatment with increasing concentrations of Con-3, Con-7, Con-P1 or Con-P2 for 2 days (A), 3 days (B) and 4 days (C) at 37 °C. At the end of the incubation, the cells were further incubated with 0.5 mg/mL MTT for 4 h at room temperature and the formed purple formazan crystals were quantified by measuring absorbance at 594 nm. The means ± S.E (triplicate determination) are shown from a representative experiment performed 3 times with similar results. The proliferation rates of cells treated with 1 μΜ of GnRH analogs were used to plot the graph D which depicts the decrease in cell growth over the incubation time (D). Statistical analysis was performed using one-way ANOVA.
At the end of the incubation, the cells were further incubated with 0.5 mg/mL MTT for 4 h at room temperature and the formed purple formazan crystals were quantified by measuring absorbance at 594 nm. The means ± S.E (triplicate determination) are shown from a representative experiment performed 3 times with similar results. […] Statistical analysis was performed using one-way ANOVA.
SKOV-3 cells (kindly provided by Prof. Dimitrios Mavroudis, University of Crete) were seeded into 96-well plates at a density of 6000 cells/well, in triplicates, and incubated overnight in Dulbecco’s modified Eagle’s medium/F12 (DMEM/F12) (1:1), containing 3.15 g/L glucose and 10% bovine calf serum (BCS, HyClone), at 37 °C and 5% CO2. At the end of the incubation, the culture medium was replaced with a fresh one containing 3.15 g/L glucose and 2% BCS, with or without increasing concentrations of GnRH analogs or mitoxantrone (0.1 nM–10 µM), and the cells were further incubated at 37 °C and 5% CO2 for 2, 3 and 4 days. Subsequently, (3-(4,5-dimethylthiazol-2-yl)-2,5- diphenyl tetrazolium bromide) (MTT) was added at a final concentration of 0.5 mg/mL, and the mixtures were incubated for 4 h at room temperature in the dark, allowing the viable cells to reduce the MTT to formazan crystals. The supernatants were removed, and the purple formazan crystals were dissolved in isopropanol containing 4% HCl (100 μL/well) by mixing thoroughly for 30 min in the dark, before the quantification of the absorbance at 594 nm using a Dynatech MicroElisa reader (Chantilly, VA, USA). The percentage of the proliferation rate (% proliferation rate) treated with a GnRH analog was determined based on the following equation: % proliferation rate = (absorbance of cells treated with a GnRH analog/absorbance of untreated cells) × 100. The % viability of the untreated cells (control) was defined as 100%. The % viabilities were analyzed by nonlinear regression analysis, using Prism 8.0 (GraphPad Software, Prism 8.0, San Diego, CA, USA).

SKOV-3 cells [2] = assay: Annexin V / propidium iodide apoptosis assay by flow cytometry; type: cell-based, human; details: 1 μM, 2, 3 and 4 days; flow cytometry
From the text: We next evaluate the abilities of Con-3 and Con-7 at concentrations of 1 μΜ to induce cell death by determining the percentages of live, apoptotic and necrotic cells after treatment of SKOV-3 cells with the GnRH conjugates. As shown in Figure 5 and Figures S1–S3 on day 2, the majority of SKOV-3 cells were viable (Q4 quadrant), treated either with Con-3, Con-7 or mitoxantrone, whereas the percentage of apoptotic cells (late or early apoptotic) (Q1, Q2 quadrants) was only 10.1%, 10.87% and 13.1% after treatment with Con-3, Con-7 or mitoxantrone, respectively. […] Cell viability further decreased on day 4 with a concomitant increase in apoptosis. Specifically, the percentage of apoptotic cells was 53.5%, 59.6% and 54.3% after treatment with Con-3, Con-7 or mitoxantrone (Figure 5 and Figures S7–S9). In all phases, the percentage of the necrotic and late apoptotic cells (Q3 quadrant) was very small.
Figure 5 Determination of viability, apoptosis, or necrosis of SKOV-3 cells after their treatment with 1 μM Con-3, Con-7, or mitoxantrone for 2, 3, and 4 days at 37 °C. At the end of the incubation the cells were further incubated in binding buffer supplied by Biotium, (CF488A Apoptosis Detection kit) and analyzed on a flow cytometer (excitation 488 nm), in the FITC channel (filter 530 nm) for detection of the Annexin V-positive cellsand in the propidium iodide, or PI, channel (filter 616 nm) for detection of the PI-positive cells. The figures are from a representative experiment performed three times with similar results. A higher resolution of the images in Figure 5 is provided in the Supplementary Material (Figures S1–S9). TEXT PRINTED IN THE PICTURE: Con-3: Q3: 4,19 (Day 2); Q2: 7,12 (Day 2); Q4: 85,7 (Day 2); Q1: 2,98 (Day 2); Q3: 5,31 (Day3); Q2: 19,5 (Day3); Q4: 58,0 (Day3); Q1: 17,1 (Day3); Q3: 3,54 (Day4); Q2: 17,1 (Day4); Q4: 43,0 (Day4); Q1: 36,4 (Day4) | Con-7: Q3: 6,31 (Day 2); Q2: 7,74 (Day 2); Q4: 82,8 (Day 2); Q1: 3,13 (Day 2); Q3: 8,11 (Day3); Q2: 19,8 (Day3); Q4: 56,8 (Day3); Q1: 15,3 (Day3); Q3: 3,48 (Day4); Q2: 19,7 (Day4); Q4: 36,9 (Day4); Q1: 39,9 (Day4) | Mitoxantrone: Q3: 6,49 (Day 2); Q2: 9,40 (Day 2); Q4: 80,4 (Day 2); Q1: 3,67 (Day 2); Q3: 7,13 (Day3); Q2: 18,9 (Day3); Q4: 61,0 (Day3); Q1: 13,1 (Day3); Q3: 2,72 (Day4); Q2: 17,3 (Day4); Q4: 43,0 (Decimal sign as read) (Day4); Q1: 37,0 (Day4) DOUBTS OF THE COPYIST ABOUT THIS PICTURE: All quadrant values: the print is very small, and the decimal sign may be a comma or a point in every value / Con-3, Day 2, Q4: 85,7 or 86,7 / Con-3, Day 2, Q1: 2,98 or 2,96 / Con-3, Day3, Q3: 5,31 or 6,31 / Con-3, Day3, Q2: 19,5 or 19,6 / Con-3, Day3, Q4: 58,0 or 56,0 / Con-3, Day4, Q3: 3,54 or 3,64 / Con-3, Day4, Q1: 36,4 or 38,4 / Con-7, Day 2, Q3: 6,31 or 8,31 / Con-7, Day 2, Q4: 82,8 or 82,6 / Con-7, Day 2, Q1: 3,13 or 3,15 / Con-7, Day3, Q3: 8,11 or 6,11 / Con-7, Day3, Q2: 19,8 or 19,6 / Con-7, Day3, Q4: 56,8 or 58,8 / Con-7, Day3, Q1: 15,3 or 15,8 / Con-7, Day4, Q3: 3,48 or 3,46 / Con-7, Day4, Q4: 36,9 or 38,9 / Con-7, Day4, Q1: 39,9 or 38,9 / Mitoxantrone, Day 2, Q3: 6,49 or 8,49 / Mitoxantrone, Day 2, Q2: 9,40 or 8,40 / Mitoxantrone, Day 2, Q4: 80,4 or 60,4 / Mitoxantrone, Day 2, Q1: 3,67 or 3,87 / Mitoxantrone, Day3, Q2: 18,9 or 16,9 / Mitoxantrone, Day3, Q4: 61,0 or 81,0 / Mitoxantrone, Day3, Q1: 13,1 or 15,1 […]
SKOV-3 cells were seeded into 12-well plates at a density of 50,000 cells/well and incubated overnight in DMEM/F12 (1:1) containing 3.15 g/L glucose and 10% BCS, at 37 °C and 5% CO2. At the end of the incubation, the culture medium was replaced with a fresh one containing 3.15 g/L glucose and 2% BCS, with or without GnRH analogs or mitoxantrone at a concentration of 1 μΜ, and the cells were further incubated at 37 °C and 5% CO2 for 2, 3 and 4 days. […]

human GnRH-R = target: T1, human GnRH-R (Homo sapiens, UniProt P30968); assay: Calcium-based (fura-2) kinetic assay of GnRH-R agonism; type: cell-based; details: HEK293 cells transiently transfected with human GnRH-R; fura-2 ratio, 96-well, Flexstation 3; experiments performed a minimum of three times; read-out: EC50 for increase in intracellular [Ca2+]
T1 construct: host or cells: HEK293 (ATCC CRL-1573)
T1 sequence (P30968 1-328): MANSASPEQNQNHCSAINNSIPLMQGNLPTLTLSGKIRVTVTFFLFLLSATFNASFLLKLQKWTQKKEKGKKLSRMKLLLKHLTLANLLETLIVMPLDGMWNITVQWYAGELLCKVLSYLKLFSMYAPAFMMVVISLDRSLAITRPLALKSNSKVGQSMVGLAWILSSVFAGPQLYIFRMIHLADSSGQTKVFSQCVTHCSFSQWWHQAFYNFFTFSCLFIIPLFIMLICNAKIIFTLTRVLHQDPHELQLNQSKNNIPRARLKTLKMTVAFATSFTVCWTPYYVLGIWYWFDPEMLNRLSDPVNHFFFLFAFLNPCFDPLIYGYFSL
Description: For this purpose, fura-2-based kinetic assays to monitor the [Ca^2+] were performed in real-time using suspensions of HEK293 cells transiently transfected with the human GnRH-R (Figure 2A–I).
HEK293 cells transfected with the human GnRH-R served as a platform with which to test for agonist actions of individual test compounds. These cells were loaded with the ratiometric Ca^2+ indicator fura-2 so that the change in intracellular [Ca^2+] in response to agonist stimulation could be monitored in real time in a 96-well format. For these assays, the individual test compounds were administered at the 100 s time point.
Two days post-transfection, the HEK293 cells were harvested via trypsinization to obtain single-cell suspensions that were plated at 80% density on rat tail collagen-coated 96-well Costar 3904 plates for loading with the ratiometric Ca^2+ indicator fura-2. Measurements of the intracellular [Ca^2+] were performed using a Flexstation 3 microplate reader (Molecular Devices, Sunnyvale, CA, USA). Briefly, test solutions containing GnRH-R agonists were administered to individual wells of a 96-well plate using the automated pipetting feature of the Flexstation under computer control. […] Emitted light was detected at 505/15 nm, and the ratio of emission light intensity due to excitation at 335/9 and 375/9 nm was calculated. […]

## CCNC(=O)[C@@H]1CCCN1C(=O)[C@H](CCCNC(=N)N)NC(=O)[C@H](CC(C)C)NC(=O)[C@@H](CCCCN)NC(=O)[C@H](Cc1ccc(O)cc1)NC(=O)[C@H](CO)NC(=O)[C@H](Cc1c[nH]c2ccccc12)NC(=O)[C@H](Cc1c[nH]cn1)NC(=O)[C@@H]1CCC(=O)N1 [Con-P1]
SKOV-3 cells [1]
  effect on proliferation of SKOV-3 cells, in words: did not affect the proliferation of SKOV-3 cells
SKOV-3 cells [2]
  effect on viability of SKOV-3 cells, in words: did not affect the viability of SKOV-3 cells

## CCNC(=O)[C@@H]1CCCN1C(=O)[C@H](CCCNC(=N)N)NC(=O)[C@H](CC(C)C)NC(=O)[C@@H](CS)NC(=O)[C@H](Cc1ccc(O)cc1)NC(=O)[C@H](CO)NC(=O)[C@H](Cc1c[nH]c2ccccc12)NC(=O)[C@H](Cc1c[nH]cn1)NC(=O)[C@@H]1CCC(=O)N1 [Con-P2]
Human GnRH-R
  EC50: 0.67 nM
